Tested on: 233499-124-R-J3-PDC complex spheroid viability, % test/control
Experiment: Anticancer human tumor 233499-124-R-J3-PDC patient-derived colon adenocarcinoma cell line growth inhibition
Conditions: for IC50: curve of first compound; for viability, T/C: stronger effect = lower value
Method in brief: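 Complex spheroids of tumor cells with HUVEC and human MSCs, exposed to iadademstat combined with other agents. Each agent tested in half-log steps from near clinical Cmax (else 10 microM top), DMSO ≤0.25%.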

[1] = second compound 0.1 µM, first compound 0.00949 µM
[2] = second compound 0.1 µM, first compound 0.03 µM
[3] = second compound 0.1 µM, first compound 0.0949 µM
[4] = second compound 0.1 µM, first compound 0.3 µM
[5] = second compound 0.1 µM, first compound 0.949 µM
[6] = second compound 0.1 µM, first compound 3 µM
[7] = second compound 0.316 µM, first compound 0.00949 µM
[8] = second compound 0.316 µM, first compound 0.03 µM
[9] = second compound 0.316 µM, first compound 0.0949 µM
[10] = second compound 0.316 µM, first compound 0.3 µM
[11] = second compound 0.316 µM, first compound 0.949 µM
[12] = second compound 0.316 µM, first compound 3 µM
[13] = second compound 1 µM, first compound 0.00949 µM
[14] = second compound 1 µM, first compound 0.03 µM
[15] = second compound 1 µM, first compound 0.0949 µM
[16] = second compound 1 µM, first compound 0.3 µM
[17] = second compound 1 µM, first compound 0.949 µM
[18] = second compound 1 µM, first compound 3 µM
[19] = second compound 3.16 µM, first compound 0.00949 µM
[20] = second compound 3.16 µM, first compound 0.03 µM
[21] = second compound 3.16 µM, first compound 0.0949 µM
[22] = second compound 3.16 µM, first compound 0.3 µM
[23] = second compound 3.16 µM, first compound 0.949 µM
[24] = second compound 3.16 µM, first compound 3 µM
[25] = second compound 10 µM, first compound 0.00949 µM
[26] = second compound 10 µM, first compound 0.03 µM
[27] = second compound 10 µM, first compound 0.0949 µM
[28] = second compound 10 µM, first compound 0.3 µM
[29] = second compound 10 µM, first compound 0.949 µM
[30] = second compound 10 µM, first compound 3 µM
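Note: spheroids exposed to agents for one week before readout.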

Row | SMILES | IC50 (second compound 0.1 µM) | IC50 (second compound 0.316 µM) | IC50 (second compound 1 µM) | IC50 (second compound 3.16 µM) | IC50 (second compound 10 µM) | viability, T/C [1] | viability, T/C [2] | viability, T/C [3] | viability, T/C [4] | viability, T/C [5] | viability, T/C [6] | viability, T/C [7] | viability, T/C [8] | viability, T/C [9] | viability, T/C [10] | viability, T/C [11] | viability, T/C [12] | viability, T/C [13] | viability, T/C [14] | viability, T/C [15] | also measured
1 | NS(=O)(=O)OCC1CC(n2ccc3c(NC4CCc5ccccc54)ncnc32)CC1O (stereo not given) + NC1CC1c1ccc(-c2cccc(O)c2)cc1 | 46.8 nM | 58.5 nM | 42.3 nM | 52.4 nM | 46.4 nM | 92.5% | 63.6% | 28.6% | 6.14% | 3.11% | 2.93% | 100% | 76.9% | 31.2% | 5.03% | 4.27% | 3.91% | 92.3% | 59.1% | 28.5% | viability, T/C [16]: 9.59%; viability, T/C [17]: 4.05%; viability, T/C [18]: 3.47%; viability, T/C [19]: 90.8%; viability, T/C [20]: 68.8%; viability, T/C [21]: 29.9%; viability, T/C [22]: 9.96%; viability, T/C [23]: 4.13%; viability, T/C [24]: 3.43%; viability, T/C [25]: 84%; viability, T/C [26]: 63.9%; viability, T/C [27]: 27.1%; viability, T/C [28]: 8.93%; viability, T/C [29]: 5.35%; viability, T/C [30]: 2.93%
2 | Nc1ccccc1NC(=O)c1ccc(CNC(=O)OCc2cccnc2)cc1 + NC1CC1c1ccc(-c2cccc(O)c2)cc1 | 453 nM | 374 nM | 246 nM | 387 nM | 338 nM | 80.8% | 106% | 100% | 71.4% | 11.4% | 3.1% | 101% | 106% | 93.1% | 59.9% | 11.3% | 1.9% | 101% | 98.8% | 75% | viability, T/C [16]: 47.7%; viability, T/C [17]: 9.92%; viability, T/C [18]: 2.32%; viability, T/C [19]: 84.4%; viability, T/C [20]: 76.1%; viability, T/C [21]: 79.8%; viability, T/C [22]: 60.5%; viability, T/C [23]: 12.9%; viability, T/C [24]: 2.93%; viability, T/C [25]: 71.4%; viability, T/C [26]: 79.6%; viability, T/C [27]: 78.2%; viability, T/C [28]: 54.6%; viability, T/C [29]: 8.25%; viability, T/C [30]: 1.7%
3 | O=C(C=Cc1cccc(S(=O)(=O)Nc2ccccc2)c1)NO + NC1CC1c1ccc(-c2cccc(O)c2)cc1 | > 3000 nM | > 3000 nM | > 3000 nM | 908 nM | 759 nM | 108% | 134% | 118% | 113% | 14.4% | 89.1% | 126% | 112% | 124% | 115% | 10.3% | 97% | 95.2% | 109% | 113% | viability, T/C [16]: 113%; viability, T/C [17]: 9.43%; viability, T/C [18]: 91.8%; viability, T/C [19]: 86%; viability, T/C [20]: 104%; viability, T/C [21]: 93.8%; viability, T/C [22]: 108%; viability, T/C [23]: 7.54%; viability, T/C [24]: 88.7%; viability, T/C [25]: 86%; viability, T/C [26]: 91.9%; viability, T/C [27]: 90.9%; viability, T/C [28]: 109%; viability, T/C [29]: 5%; viability, T/C [30]: 73.7%

Source: PubChem BioAssay AID1918930 (Molecular Pharmacology Branch, DTP, NCI, 2023)
